# Test results published in patent US10947188B2, “Small molecule ferroptosis inducers” (THE TRUSTEES OF COLUMBIA UNIVERSITY IN THE CITY OF NEW YORK, priority 2016, dated 2021).
# Read-outs that look alike come from different tables or passages of the source. Where a SMILES comes first, the peptide text is derived from it. The star is where a group is joined. Cbz = O=C(OCc1ccccc1)*
# System: HT-1080
# Assay: Modulatory profiling: Alamar Blue viability, lethal compound cotreated with death modulator (EC50, AUC)
# Type: cell-based
# Parameters: AUC, modulator HT.3MA / AUC, modulator HT.ALLN / AUC HT.ATA / AUC HT.ActD / AUC HT.BHA / AUC HT.BHT / AUC HT.BocD / AUC HT.CHX / AUC HT.Co2+ / AUC HT.DPQ / AUC HT.EGTA / AUC HT.Lmim / AUC HT.NAD+ / AUC HT.Nec-1 / AUC HT.SP600125 / AUC HT.TLCK / AUC HT.U0126: unit not given beside the values
# Conditions: for AUC HT.ATA: HT-1080, modulator ATA; for AUC HT.ActD: HT-1080, modulator ActD; for AUC HT.BHA: HT-1080, modulator BHA; for AUC HT.BHT: HT-1080, modulator BHT; for AUC HT.BocD: HT-1080, modulator BocD; for AUC HT.CHX: HT-1080, modulator CHX; for AUC HT.Co2+: HT-1080, modulator Co2+; for AUC HT.CspA: HT-1080, modulator CspA; for AUC HT.DPQ: HT-1080, modulator DPQ; for AUC HT.Gd3+: HT-1080, modulator Gd3+; for AUC HT.LNAME: HT-1080, modulator LNAME; for AUC HT.Lmim: HT-1080, modulator Lmim; for AUC HT.NAD+: HT-1080, modulator NAD+; for AUC HT.NMMA: HT-1080, modulator NMMA; for HT.atoc (AUC) / HT.bCarotene (AUC) / HT.deferox (AUC) / HT.digoxin (AUC) / HT.trolox (AUC) / HT.zVAD (AUC) / EC50: HT-1080; for HT.atoc (AUC): modulator atoc; for HT.bCarotene (AUC): modulator bCarotene; for HT.deferox (AUC): modulator deferox; for HT.digoxin (AUC): modulator digoxin; for HT.trolox (AUC): modulator trolox; for HT.zVAD (AUC): modulator zVAD; for AUC, modulator HT.3MA / AUC, modulator HT.ALLN: HT-1080 cells, modulatory profile value (AUC); for AUC, modulator HT.3MA: lethal compound cotreated with modulator 3MA; for AUC, modulator HT.ALLN: lethal compound cotreated with modulator ALLN; for EC50: Homo sapiens, HT-1080, 48 h, 48 h; for AUC HT.Nec-1: HT-1080, modulator Nec-1; for AUC HT.Pepstatin: HT-1080, modulator Pepstatin; for AUC HT.SP600125: HT-1080, modulator SP600125; for AUC HT.TLCK: HT-1080, modulator TLCK; for AUC HT.U0126: HT-1080, modulator U0126
SMILES,AUC HT.ATA,AUC HT.ActD,AUC HT.BHA,AUC HT.BHT,AUC HT.BocD,AUC HT.CHX,AUC HT.Co2+,AUC HT.CspA,AUC HT.DPQ,AUC HT.Gd3+,AUC HT.LNAME,AUC HT.Lmim,AUC HT.NAD+,AUC HT.NMMA,HT.atoc (AUC),HT.bCarotene (AUC),HT.deferox (AUC),HT.digoxin (AUC),HT.trolox (AUC),HT.zVAD (AUC),further results
COc1ccc(-n2nnnc2S(=O)(=O)CC(=O)N2CCCCC2)cc1 [CIL48],0.04684,0.01673,−0.06966,−0.1547,−0.03823,0.0148,0.0307,0.002689,−0.0003728,−0.003556,−0.04087,−0.01757,−0.05465,−0.01902,0.09021,−0.00845,0.1268,−0.01513,−0.02612,−0.005053,"AUC HT.EGTA (HT-1080, modulator EGTA): 0.01715; AUC, modulator HT.3MA: 0.0854; AUC, modulator HT.ALLN: 0.1611"
CCCCS(=O)(=O)/C=C\C=C/S(=O)(=O)CCCC [CIL49],0.04768,−0.01874,−0.01433,−0.08297,−0.0224,−0.009484,0.008808,0.04471,−0.02418,0.000907,0.01289,−0.03685,−0.01413,0.000429,0.02137,−0.02606,0.07453,0.001647,−0.01523,0.009879,"AUC HT.EGTA (HT-1080, modulator EGTA): 0.02252; AUC, modulator HT.3MA: 0.05435; AUC, modulator HT.ALLN: 0.0662"
O=C(CCl)N(c1ccc(Cl)cc1)c1c[nH]c2ccccc12 [CIL75],−0.01715,0.01892,0.3131,0.2828,−0.01219,0.0402,0.1217,−0.009674,0.01971,−0.02285,−0.01737,0.2499,−0.002594,−0.02794,0.3816,−0.01871,0.4009,−0.037,0.3452,0.0001191,"AUC HT.EGTA (HT-1080, modulator EGTA): −0.007018; effect of ferroptosis inhibitors (iron chelators and lipophilic antioxidants) on lethality in modulatory profiling (HT-1080 and BJeLR): suppression by canonical ferroptosis inhibitors; EC50 (DMSO): 144 nM; EC50 (cotreated with MEK inh U0126): 2530 nM; EC50 (cotreated with antioxidant Atoc): 2940 nM; EC50 (cotreated with antioxidant BHA): 2750 nM; EC50 (cotreated with antioxidant BHT): 1720 nM; EC50 (cotreated with antioxidant Trolox): 2560 nM; EC50 (cotreated with iron-chelator Deferoxamine): 4820 nM; EC50 (cotreated with iron-chelator Lmim): 2470 nM"
CC[C@@]1(O)C(=O)OCc2c1cc1n(c2=O)Cc2cc3ccccc3nc2-1 [Camptothecin],−0.00483,−0.1287,0.04861,−0.08411,0.03455,0.0562,0.1416,−0.1552,0.008143,0.02887,0.01135,0.0722,0.06078,0.01978,0.004008,0.002837,0.1288,0.1442,0.01719,0.03249,"AUC HT.EGTA (HT-1080, modulator EGTA): 0.01652; AUC HT.Nec-1: 0.01102; AUC HT.Pepstatin: 0.005918; AUC HT.SP600125: 0.02319; AUC HT.TLCK: 0.04383; AUC HT.U0126: 0.0002717; AUC, modulator HT.3MA: 0.0192; AUC, modulator HT.ALLN: 0.03354"
COc1ccc(N(C(=O)CCl)C(C(=O)NCCc2ccccc2)c2cccs2)cc1 (centres unmarked) [DPI4],−0.03622,−0.006831,0.285,0.2486,−0.01407,−0.008699,0.1741,5.8801E−05,0.05528,−0.02121,0.01547,0.3086,0.02441,−0.0007723,0.3523,−0.01264,0.4095,−0.06343,0.3151,−0.04451,"AUC HT.EGTA (HT-1080, modulator EGTA): 0.0361; AUC HT.Nec-1: 0.05135; AUC HT.Pepstatin: −0.003295; AUC HT.SP600125: −0.04284; AUC HT.TLCK: 0.1761; AUC HT.U0126: 0.3423; AUC, modulator HT.3MA: −0.001458; AUC, modulator HT.ALLN: −0.1648"
CS[C@H]1SC[C@H]2C(=O)N(C)[C@@H](C(C)C)C(=O)OC[C@@H](NC(=O)c3cnc4ccccc4n3)C(=O)N[C@@H](C)C(=O)N(C)[C@@H]1C(=O)N(C)[C@@H](C(C)C)C(=O)OC[C@@H](NC(=O)c1cnc3ccccc3n1)C(=O)N[C@@H](C)C(=O)N2C [Echinomycin],0.04087,0.06604,0.02424,−0.04076,0.07385,0.1436,0.1492,−0.08426,0.006918,0.01526,0.01178,0.06784,0.178,−0.0009733,0.1464,−0.004968,0.1665,0.09969,−0.02423,0.07367,"AUC HT.EGTA (HT-1080, modulator EGTA): 0.006916; AUC HT.Nec-1: 0.02093; AUC HT.Pepstatin: 0.006861; AUC HT.SP600125: 0.08228; AUC HT.TLCK: 0.006436; AUC HT.U0126: 0.01676; AUC, modulator HT.3MA: 0.3083; AUC, modulator HT.ALLN: 0.084"
COc1cc([C@@H]2c3cc4c(cc3[C@@H](O[C@@H]3O[C@@H]5CO[C@@H](C)O[C@H]5[C@H](O)[C@H]3O)[C@H]3COC(=O)[C@H]23)OCO4)cc(OC)c1O [Etoposide],−0.0363,−0.09944,0.04757,−0.0005481,0.05886,0.113,0.3926,−0.177,0.006422,0.02668,0.005444,0.05001,0.0527,0.01603,−0.006276,0.00393,0.1428,0.1311,0.01328,0.03817,"AUC HT.EGTA (HT-1080, modulator EGTA): 0.02457; AUC HT.Nec-1: −0.005949; AUC HT.Pepstatin: −0.001737; AUC HT.SP600125: 0.00478; AUC HT.TLCK: 0.1489; AUC HT.U0126: −0.02627; AUC, modulator HT.3MA: 0.007208; AUC, modulator HT.ALLN: 0.03277"
"CC(C)C[C@@H](C=O)NC(=O)[C@H](CC(C)C)NC(=O)[C@H](CC(C)C)NC(=O)OCc1ccccc1 [MG132, reference compound] (Cbz-Leu-Leu-Leu-aldehyde)",0.005768,−0.06417,−0.1238,−0.1271,0.002051,0.04854,−0.05705,−0.3221,−0.02406,−0.011,5.1006E−05,0.001338,0.03798,0.01064,0.04884,7.0861E−05,−0.1162,0.08352,−0.01616,−0.0992,"AUC HT.EGTA: 0.007775; AUC HT.Nec-1: −0.09728; AUC HT.Pepstatin: −0.02733; AUC HT.SP600125: −0.03431; AUC HT.TLCK: 0.01546; AUC HT.U0126: −0.071; AUC, modulator HT.3MA: −0.03392; AUC, modulator HT.ALLN: −0.2149"
Nc1ccccc1NC(=O)c1ccc(CNC(=O)OCc2cccnc2)cc1 [MS275],0.0212,−0.1982,−0.04868,−0.1794,0.02448,−0.1189,−0.1027,−0.1886,−0.01058,−0.01027,0.004204,−0.09728,0.0008794,−0.00333,−0.01016,−0.03005,−0.1653,−0.1793,−0.02599,0.0222,"AUC HT.EGTA: −0.005811; AUC HT.Nec-1: −0.05557; AUC HT.Pepstatin: −0.01654; AUC HT.SP600125: −0.09903; AUC HT.TLCK: −0.02404; AUC HT.U0126: −0.01884; AUC, modulator HT.3MA: −0.09204; AUC, modulator HT.ALLN: −0.1325"
O=C1c2c(O)ccc(O)c2C(=O)c2c(NCCNCCO)ccc(NCCNCCO)c21 [Mitoxantrone],0.02422,−0.02073,0.02091,−0.0249,0.06802,0.04002,0.3817,−0.1127,0.006504,0.03227,0.01298,0.05678,0.1502,0.0236,0.04839,−0.003915,0.1001,0.1321,−0.01388,0.03446,"AUC HT.EGTA (HT-1080, modulator EGTA): 0.01802; AUC HT.Nec-1: 0.01073; AUC HT.Pepstatin: 0.02067; AUC HT.SP600125: −0.01575; AUC HT.TLCK: 0.06003; AUC HT.U0126: −0.03205; AUC, modulator HT.3MA: 0.02955; AUC, modulator HT.ALLN: 0.07355"
